In ChEMBL document CHEMBL4308867, “Discovery of naldemedine: A potent and orally available opioid receptor antagonist for treatment of opioid-induced adverse effects” (Bioorg Med Chem Lett, 2019):

Key:
[1] = target: T1, Mu-type opioid receptor (Homo sapiens, UniProt P35372); experiment: Displacement of [3H]-DAMGO from recombinant human mu-opioid receptor expressed in CHOK1 cells; assay type: cell-based
[2] = target: T2, Delta-type opioid receptor (Homo sapiens, UniProt P41143); experiment: Displacement of [3H]-DADLE from recombinant human delta-opioid receptor expressed in HEK293 cells; assay type: cell-based
T2 sequence (P41143 whole entry): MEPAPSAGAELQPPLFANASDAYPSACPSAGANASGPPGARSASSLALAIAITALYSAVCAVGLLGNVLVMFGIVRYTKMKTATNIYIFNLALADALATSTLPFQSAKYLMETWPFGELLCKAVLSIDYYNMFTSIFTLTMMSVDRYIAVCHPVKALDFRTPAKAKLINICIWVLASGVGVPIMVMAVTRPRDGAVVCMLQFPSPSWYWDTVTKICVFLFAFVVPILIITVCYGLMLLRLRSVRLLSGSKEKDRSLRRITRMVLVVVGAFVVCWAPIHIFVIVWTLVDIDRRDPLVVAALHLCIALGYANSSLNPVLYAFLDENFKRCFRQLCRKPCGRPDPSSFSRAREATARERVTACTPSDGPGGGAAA

[3] = Stability in human microsomes assessed as parent compound remaining at 0.5 uM measured after 0.5 hrs; assay type: ADME, Microsome; conditions: read-out: Stability
[4] = Stability in rat microsomes assessed as parent compound remaining at 0.5 uM measured after 0.5 hrs; assay type: ADME, Microsome; conditions: read-out: Stability
[5] = Total clearance in rat at 1 mg/kg, po administered as cassette dose; assay type: ADME, organism-based; conditions: in vivo
[6] = Oral bioavailability in rat at 1 mg/kg administered as cassette dose; assay type: ADME, organism-based; conditions: in vivo
[7] = Chemical stability of the compound; assay type: physicochemical
[8] = Stability in plasma (unknown origin) assessed as parent compound remaining after 24 hrs; assay type: ADME, cell-free; conditions: read-out: Stability
[9] = target: T1, Mu-type opioid receptor; experiment: Antagonist activity at mu-opioid receptor (unknown origin) by [35S]-GTPgammaS binding assay; assay type: functional
[10] = target: T2, Delta-type opioid receptor; experiment: Antagonist activity at delta-opioid receptor (unknown origin) by [35S]-GTPgammaS binding assay; assay type: functional
[11] = system: Mustela putorius furo; experiment: In vivo antagonist activity at mu-opioid receptor in po dosed ferret assessed as inhibition of morphine-induced emesis/vomiting; assay type: functional
[12] = organism: Rattus norvegicus; experiment: […]; assay type: functional; conditions: po
[13] = system: Rattus norvegicus; experiment: Antianalgesic activity in po dosed rat assessed as inhibition of morphine-induced analgesia by tail-flick test; assay type: functional
[14] = Selectivity ratio of ED50 for inhibition of morphine-induced analgesia in po dosed rat to ED50 for inhibition of morphine-induced emesis/vomiting in po dosed ferret; assay type: functional
[15] = system: Rattus norvegicus; experiment: Selectivity ratio of ED50 for inhibition of morphine-induced analgesia in po dosed rat to ED50 for inhibition of morphine-induced constipation in po dosed rat; assay type: functional
[16] = Brain to blood partition coefficient, Kp of the compound in rat at 1 mg/kg, po administered as cassette dose; assay type: ADME, organism-based
[17] = Cmax in rat brain at 1 mg/kg, po administered as cassette dose; assay type: ADME, organism-based; set-up: dose 1 mg/kg, route oral
[18] = system: Mustela putorius furo; experiment: In vivo antagonist activity at mu-opioid receptor in sc dosed ferret assessed as inhibition of morphine-induced emesis/vomiting; assay type: functional
[19] = system: Rattus norvegicus; experiment: In vivo antagonist activity at […] in sc dosed rat assessed as inhibition of morphine-induced constipation; assay type: functional
[20] = Drug metabolism assessed as formation of 14-O-acyl form and 7-acyl form mixture

T1 sequence (P35372 whole entry): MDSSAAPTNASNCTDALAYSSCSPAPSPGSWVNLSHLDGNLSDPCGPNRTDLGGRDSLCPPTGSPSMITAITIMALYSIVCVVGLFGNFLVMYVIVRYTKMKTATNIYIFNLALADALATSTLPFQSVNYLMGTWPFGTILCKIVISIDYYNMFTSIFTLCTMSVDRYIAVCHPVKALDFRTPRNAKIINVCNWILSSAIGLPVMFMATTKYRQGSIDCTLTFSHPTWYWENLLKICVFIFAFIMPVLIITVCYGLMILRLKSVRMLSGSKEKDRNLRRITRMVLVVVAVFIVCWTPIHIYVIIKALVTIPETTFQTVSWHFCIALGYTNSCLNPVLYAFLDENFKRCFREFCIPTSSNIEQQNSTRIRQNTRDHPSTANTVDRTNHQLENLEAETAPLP

| SMILES | Ki [1] [nM] | Ki [2] [nM] | remaining at 0.5 h, 0.5 µM [3] [%] | remaining at 0.5 h, 0.5 µM [4] [%] | CL/F [5] [mL/min/kg] | bioavailability [6] [%] | Stability [7] | remaining at 24 h [8] [%] | Ke [9] [nM] | Ke [10] [nM] | ED50 [11] [mg/kg] | ED50 [12] [mg/kg] | ED50 [13] [mg/kg] | Ratio ED50 [14] | Ratio ED50 [15] | Kp [16] | Cmax [17] [ng/mL] | ED50 [18] [mg/kg] | ED50 [19] [mg/kg] | Drug metabolism [20] |
| --- | --- | --- | --- | --- | --- | --- | --- | --- | --- | --- | --- | --- | --- | --- | --- | --- | --- | --- | --- | --- |
| CC(C)NC(=O)C1=C(O)[C@@H]2Oc3c(O)ccc4c3[C@@]23CCN(CC2CC2)[C@H](C4)[C@]3(O)C1 | 3.4 to 5.2 | 2 to 7.4 | 95 | 88 | 41 | 50 | Stable | > 80 | 6.2 | 3.8 | 0.04 | 0.57 | 10.7 | 266 | 19 |  |  |  |  |  |
| O=C(Nc1ccccc1)C1=C(O)[C@@H]2Oc3c(O)ccc4c3[C@@]23CCN(CC2CC2)[C@H](C4)[C@]3(O)C1 | 1 to 4.1 | 6.8 to 20 | 89 | 78 | 36 | 57 | Stable | > 80 | 3.2 | 3.6 | 0.04 | 0.99 | 16.5 | 413 | 17 |  |  |  |  |  |
| O=C(NCc1ccccc1)C1=C(O)[C@@H]2Oc3c(O)ccc4c3[C@@]23CCN(CC2CC2)[C@H](C4)[C@]3(O)C1 | 1.1 | 16 | 94 | 14 | 61 | 46 | Stable | > 80 |  |  |  |  |  |  |  | 0.17 | 12 |  |  |  |
| COC(=O)C1(NC(=O)C2=C(O)[C@@H]3Oc4c(O)ccc5c4[C@@]34CCN(CC3CC3)[C@H](C5)[C@]4(O)C2)CC1 | 1.6 | 9.8 | 100 | 103 | 30 | 11 | Stable | > 80 | 4.1 | 7.6 | 0.026 | 0.57 | > 100 | >3846 | >175 | 0.06 | 1.3 |  |  |  |
| C[N@+]1(CC2CC2)CC[C@]23c4c5ccc(O)c4O[C@H]2C(=O)CC[C@@]3(O)[C@H]1C5.[Br-] [METHYLNALTREXONE BROMIDE] |  |  |  |  |  |  |  |  | 56 | 1080 |  |  |  |  |  |  |  | 0.69 | 4.5 |  |
| COC(=O)C(C)(C)NC(=O)C1=C(O)[C@@H]2Oc3c(O)ccc4c3[C@@]23CCN(CC2CC2)[C@H](C4)[C@]3(O)C1 | 16.5 | 3.99 | 101 | 103 | 25 | 68 | Stable | > 80 |  |  |  |  |  |  |  | 0.08 | 5.1 |  |  |  |
| Cc1noc(C(C)(C)NC(=O)C2=C(O)[C@@H]3Oc4c(O)ccc5c4[C@@]34CCN(CC3CC3)[C@H](C5)[C@]4(O)C2)n1 | 7.3 | 5.8 | 92 | 99 | 29 | 11 | Stable | > 80 |  |  |  |  |  |  |  | 0.04 | 0.29 |  |  |  |
| N#Cc1ccc(NC(=O)C2=C(O)[C@@H]3Oc4c(O)ccc5c4[C@@]34CCN(CC3CC3)[C@H](C5)[C@]4(O)C2)cc1 | 5.1 | 11.1 | 103 | 92 | 8.5 | 12 | Stable | > 80 |  |  |  |  |  |  |  | 0.03 | 1.3 |  |  |  |
| CC(C)(NC(=O)C1=C(O)[C@@H]2Oc3c(O)ccc4c3[C@@]23CCN(CC2CC2)[C@H](C4)[C@]3(O)C1)c1nc(-c2ccccc2)no1 [NALDEMEDINE] | 1.1 to 1.13 | 0.91 | 73 | 76 | 20 | 29 | Stable | > 80 | 0.05 | 0.37 | 0.03 | 0.03 | > 30 | >1000 | >500 | 0.03 | 1.3 |  |  |  |
| CC(C)(NC(=O)C1=C(O)[C@@H]2Oc3c(O)ccc4c3[C@@]23CCN(CC2CC2)[C@H](C4)[C@]3(O)C1)C(=O)NS(C)(=O)=O | 93.6 | 5.5 | 104 | 99 | 15 | 0.77 | Stable | > 80 |  |  |  |  |  |  |  | 0.01 | 0.018 |  |  |  |
| O=C(Nc1ccccn1)C1=C(O)[C@@H]2Oc3c(O)ccc4c3[C@@]23CCN(CC2CC2)[C@H](C4)[C@]3(O)C1 | 9.8 | 6.8 | 98 | 97 | 25 | 55 | Stable | > 80 |  |  |  |  |  |  |  | 0.05 | 5.6 |  |  |  |
| CC(=O)C1=C(O)[C@@H]2Oc3c(O)ccc4c3[C@@]23CCN(CC2CC2)[C@H](C4)[C@]3(O)C1 | 0.95 | 31 | 95 | 80 | 233 | 4 |  | < 20 |  |  |  |  |  |  |  | 1.1 | 5.8 |  |  | Metabolite detected |
| CCC(=O)C1=C(O)[C@@H]2Oc3c(O)ccc4c3[C@@]23CCN(CC2CC2)[C@H](C4)[C@]3(O)C1 | 1.4 | 9.9 | 85 | 46 | 313 | 6.4 |  | < 20 |  |  |  |  |  |  |  | 1.7 | 6.5 |  |  | Metabolite detected |
